Measured values taken from patent US11472807B2, “Purine derivatives for use as medicament and for use in treating neurodegenerative or neuro-inflammatory disorders” (COMMISSARIAT À L'ENERGIE ATOMIQUE ET AUX ENERGIES …, priority 2017, dated 2022).

Experiments:
[1] = system: non-spatial medium-term memory; assay: Novel object recognition (NOR) test; format: in vivo, C57Bl/6J mice; conditions: WT mice, 8 mg/kg subcutaneous, 28 days
Experimental: FIG. 14. Plots illustrating the effect of Aftin-5 on non-spatial medium-term memory. C57B1/6J mice were exposed sub-cutaneously to (A) the vehicle condition (DMSO/PEG) or (B) Aftin-5 at 8 mg/kg, during 28 days through an Alzet pump. 3-4 weeks later, cognitive abilities were assessed through different novel object recognition (NOR) tests, including the recognition of familiar objects (dark gray bars) or novel objects (light gray bars). Two-way ANOVA and Bonferroni post-hoc tests were performed and *p<0.05 indicates significant differences between Aftin-5 and control conditions, **p<0.01. Data expressed as means+/−SEM with n=15 mice/condition.
The NOR test is a test to assess the medium-term non-spatial memory (object). This test takes place in 3 sessions: the Open Field, the Familiarization session and the Test session. The first session allows the habituation of the mouse to the arena. The mouse is placed in the empty arena for 15 min. During this session, the velocity, locomotor activity and anxiety of the mouse are checked. The second session is to familiarize the animal with objects. For this, 24 hours after the Open Field, the mouse is placed in the arena containing two identical objects. The mouse will explore the arena and the two objects placed in the center for 10 min. Finally, after an interval of pre-established time (24 hours), the mouse is placed again in the same arena. […]

[2] = Brain and plasma exposure after chronic subcutaneous administration (Alzet osmotic pump); format: in vivo, C57Bl/6J mice; conditions: C57Bl/6J, mouse, sc, 30 mg/kg, 28 days, mice, read-out: brain/plasma partition coefficient (Kpbrain/plasma)
Experimental: FIG. 5. Plots illustrating the effect of brain and plasma exposure after chronic subcutaneous administration of Aftin-5 to C57B16J mice. Due to short Aftin-5 elimination half-time, C57B1/6J mice were exposed subcutaneously to Aftin-5 (30 mg/kg) or vehicle (DMSO/PEG) during 28 days through an Alzet osmotic pump (pump 1004, Q=0.14 μL/hrs). Plasma was collected at different time points and 28 days after, both brain tissue and plasma were collected. Aftin-5 were extracted and quantified by LC-MS/MS (Quattro Premier). Aftin-5 concentrations in plasma (A) and brain (B) were expressed in nM. Data expressed as means+/−SEM from one experiment with n=4-5 mice/condition.
C57B1 were exposed subcutaneously to Aftin-5 using osmotic minipumps ([…]; Saint-Germain-Nuelles, France). Aftin-5 was dissolved in DMSO:propylene glycol:ethanol (45:45:10). Mice were treated with 1, 3 or 30 mg/Kg for 28 days. Filled pumps were left in saline overnight at 37° C. for priming. Mice were anesthetized with isoflurane (3-4% v/v, 1.5 mL/min) in an induction chamber and maintained under anesthesia through a mask. Mice were shaved on their back, disinfected and an incision made between the scapulae for pump implantation and finally closed with clips. 1% lidocaine gel was applied over the incision for local analgesia. Animals recovered from anesthesia in heated pads and immediately returned to the cages.

BDNF = BDNF mRNA in OHSC (RT-qPCR); format: cell-based; conditions: OHSCs from WT mice, 50 μM, 10 days
Experimental: FIG. 15. Plots illustrating the effect of Aftin-5 on relative mRNA expression levels of Long Term Potentialisation (LTP) biomarkers, i.e CREB (A), PSD95 (B) and BDNF (C) in C57B16J OHSC mice treated chronically with Aftin-5. OHSC culture media of OHSC were replaced by incubation medium containing Aftin-5 (50 μM; A50) or vehicle (0.1% DMSO; Veh). 10 days later, total mRNA in lysate was isolated and purified, cDNAs were then synthesized from […] of total mRNA. cDNAs were amplified by quantitative RT-PCR and the relative expression of specific genes was normalized to the housekeeping gene HPRT1 (2^—ΔCt). […] Data expressed as means+/−SEM from q=3 independent experiments with n=4-6 inserts/condition and 10 slices/insert. […]
The impact of Aftin-5 on gene expression of different biomarkers was determined by measuring mRNA levels of selected BDNF, CREB, PS95, INS Receptor/IGF-1 receptor, IL-1β, IL-6 in OHSC treated chronically with Aftin-5 or in a total brain from mice exposed to Aftin-5 at either 8 or 30 mg/Kg. […] RNA concentration was measured spectrophotometrically at 260 nm in a NanoDrop 2000c (Thermo Scientific, Villebon-sur-Yvette, France) (sample A260 nm/A280 nm ratios over 1.8 indicated reduced genomic DNA contamination). cDNAs were synthesized from 0.5 μg of total RNA with RT^2 First Strand kit (Qiagen, Courtaboeuf, France) according to the manufacturer's protocol and stored at −80° C. […]

CREB, BDNF, PSD95 = assay: mRNA of CREB, BDNF, PSD95 in brains of chronically treated WT mice; format: in vivo; conditions: brains from WT mice treated chronically
Experimental: The impact of Aftin-5 on gene expression of different biomarkers was determined by measuring mRNA levels of selected BDNF, CREB, PS95, INS Receptor/IGF-1 receptor, IL-1β, IL-6 in OHSC treated chronically with Aftin-5 or in a total brain from mice exposed to Aftin-5 at either 8 or 30 mg/Kg. Total RNA was extracted with TRIzol@ reagent and purified on RNeasy® minikit columns (Qiagen, Courtaboeuf, France). Briefly, cells were lysed with 0.5 mL of TRIzol@ reagent by pipetting. After addition of 100 μL of chloroform, mixtures were centrifuged at 10000 g for 15 min at 4° C., supernatants mixed with 600 μL of 70% ethanol and loaded onto RNeasy® columns. Total RNA was washed and eluted with RNase-free water according to manufacturer's protocol and stored at −80° C. RNA concentration was measured spectrophotometrically at 260 nm in a NanoDrop 2000c (Thermo Scientific, Villebon-sur-Yvette, France) (sample A260 nm/A280 nm ratios over 1.8 indicated reduced genomic DNA contamination). cDNAs were synthesized from 0.5 μg of total RNA with RT^2 First Strand kit (Qiagen, Courtaboeuf, France) according to the manufacturer's protocol and stored at −80° C. […] Threshold cycles (Ct) of target gene and cyclophilin A (Ppia−control housekeeping gene) were recorded and gene expression was calculated as 2^−ΔΔCt(ΔΔCt=ΔCttreated−ΔCtcontrol, ΔCt=Cttarget−CtPpia). […]

Compound: CC[C@H](CO)Nc1nc(N(C)c2ccccc2)c2ncn(C(C)C)c2n1 [Aftin-5]
- improvement of long term object recognition memory in NOR test [1]: does not achieve significance
- Kp at 672 h [2]: ~0.44
- BDNF mRNA (BDNF): transcriptional upregulation
- mRNA for CREB, BDNF as well as for PSD95 in brain (CREB, BDNF, PSD95): high mRNA
